From patent US20240109917A1 (ACTELION PHARMACEUTICALS LTD, priority 2020, published 2024)

What was measured:
[1] = biological target: Tb-labeled inactive PDGFRβ (Homo sapiens (Human), UniProt P09619); test: PDGFRβ LanthaScreen Assay; assay type: binding; settings: read-out: PDGFR Lantha IC50
VEGFR2, unphosphorylated = VEGFR2, unphosphorylated (Homo sapiens (Human), UniProt P35968); test: VEGFR ADP GLO Assay; assay type: biochemical
[2] = biological target: His6-TEV-PDGFRβ (557-1016) (Homo sapiens (Human), UniProt P09619); test: PDGFRβ HTRF Assay; assay type: biochemical; settings: read-out: PDGFR HTRF IC50
Sequence of His6-TEV-PDGFRβ (557-1016) (P09619 557-1016): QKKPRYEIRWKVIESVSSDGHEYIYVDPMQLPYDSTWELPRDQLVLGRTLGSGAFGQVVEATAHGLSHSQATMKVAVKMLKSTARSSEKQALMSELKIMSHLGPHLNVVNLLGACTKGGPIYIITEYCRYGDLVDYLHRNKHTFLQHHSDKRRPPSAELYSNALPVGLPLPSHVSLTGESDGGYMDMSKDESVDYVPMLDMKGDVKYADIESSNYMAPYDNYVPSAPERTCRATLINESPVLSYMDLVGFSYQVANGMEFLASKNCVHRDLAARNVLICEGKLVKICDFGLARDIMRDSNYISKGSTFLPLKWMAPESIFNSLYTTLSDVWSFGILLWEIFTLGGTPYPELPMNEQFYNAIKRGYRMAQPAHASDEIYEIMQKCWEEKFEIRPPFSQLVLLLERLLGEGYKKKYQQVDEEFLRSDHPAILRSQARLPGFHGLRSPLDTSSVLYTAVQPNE
How it was run: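 HTRF KinEASE-TK readout (665/620 nm ratio) of TK-biotin substrate phosphorylation by His-tagged PDGFRβ kinase domain. Enzyme and inhibitor preincubated 30 min, then ATP/substrate added for 3 h at room temperature before 60 min EDTA quench/detection.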

Sequence of Tb-labeled inactive PDGFRβ (P09619 33-1106): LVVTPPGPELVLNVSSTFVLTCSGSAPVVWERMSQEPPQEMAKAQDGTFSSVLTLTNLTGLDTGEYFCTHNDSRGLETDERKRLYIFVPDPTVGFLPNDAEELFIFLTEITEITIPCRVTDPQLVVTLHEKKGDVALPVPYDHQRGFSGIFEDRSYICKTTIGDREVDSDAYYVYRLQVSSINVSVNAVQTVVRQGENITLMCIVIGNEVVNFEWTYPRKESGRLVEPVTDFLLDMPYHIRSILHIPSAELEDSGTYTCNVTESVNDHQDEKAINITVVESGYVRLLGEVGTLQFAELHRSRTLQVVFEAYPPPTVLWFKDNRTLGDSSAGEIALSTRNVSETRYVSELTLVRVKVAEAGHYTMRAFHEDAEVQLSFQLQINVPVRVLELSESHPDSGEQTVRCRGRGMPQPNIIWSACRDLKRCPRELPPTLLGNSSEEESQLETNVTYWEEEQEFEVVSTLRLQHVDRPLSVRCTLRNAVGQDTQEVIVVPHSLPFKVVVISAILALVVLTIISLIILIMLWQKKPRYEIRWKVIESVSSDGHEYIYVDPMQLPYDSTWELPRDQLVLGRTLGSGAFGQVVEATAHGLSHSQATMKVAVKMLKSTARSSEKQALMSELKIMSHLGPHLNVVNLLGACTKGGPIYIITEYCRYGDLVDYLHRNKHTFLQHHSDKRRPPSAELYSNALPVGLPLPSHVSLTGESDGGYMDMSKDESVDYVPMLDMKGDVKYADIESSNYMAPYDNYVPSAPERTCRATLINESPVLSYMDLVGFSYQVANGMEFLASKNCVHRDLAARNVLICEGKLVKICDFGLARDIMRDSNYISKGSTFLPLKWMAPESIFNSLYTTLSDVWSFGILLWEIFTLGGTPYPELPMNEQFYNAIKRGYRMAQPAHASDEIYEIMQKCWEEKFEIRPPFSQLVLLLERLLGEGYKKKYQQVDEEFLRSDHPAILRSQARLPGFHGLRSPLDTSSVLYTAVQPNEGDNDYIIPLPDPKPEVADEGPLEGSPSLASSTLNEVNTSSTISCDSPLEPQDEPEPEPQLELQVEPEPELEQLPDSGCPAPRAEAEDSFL
Sequence of VEGFR2, unphosphorylated (P35968 20-1356): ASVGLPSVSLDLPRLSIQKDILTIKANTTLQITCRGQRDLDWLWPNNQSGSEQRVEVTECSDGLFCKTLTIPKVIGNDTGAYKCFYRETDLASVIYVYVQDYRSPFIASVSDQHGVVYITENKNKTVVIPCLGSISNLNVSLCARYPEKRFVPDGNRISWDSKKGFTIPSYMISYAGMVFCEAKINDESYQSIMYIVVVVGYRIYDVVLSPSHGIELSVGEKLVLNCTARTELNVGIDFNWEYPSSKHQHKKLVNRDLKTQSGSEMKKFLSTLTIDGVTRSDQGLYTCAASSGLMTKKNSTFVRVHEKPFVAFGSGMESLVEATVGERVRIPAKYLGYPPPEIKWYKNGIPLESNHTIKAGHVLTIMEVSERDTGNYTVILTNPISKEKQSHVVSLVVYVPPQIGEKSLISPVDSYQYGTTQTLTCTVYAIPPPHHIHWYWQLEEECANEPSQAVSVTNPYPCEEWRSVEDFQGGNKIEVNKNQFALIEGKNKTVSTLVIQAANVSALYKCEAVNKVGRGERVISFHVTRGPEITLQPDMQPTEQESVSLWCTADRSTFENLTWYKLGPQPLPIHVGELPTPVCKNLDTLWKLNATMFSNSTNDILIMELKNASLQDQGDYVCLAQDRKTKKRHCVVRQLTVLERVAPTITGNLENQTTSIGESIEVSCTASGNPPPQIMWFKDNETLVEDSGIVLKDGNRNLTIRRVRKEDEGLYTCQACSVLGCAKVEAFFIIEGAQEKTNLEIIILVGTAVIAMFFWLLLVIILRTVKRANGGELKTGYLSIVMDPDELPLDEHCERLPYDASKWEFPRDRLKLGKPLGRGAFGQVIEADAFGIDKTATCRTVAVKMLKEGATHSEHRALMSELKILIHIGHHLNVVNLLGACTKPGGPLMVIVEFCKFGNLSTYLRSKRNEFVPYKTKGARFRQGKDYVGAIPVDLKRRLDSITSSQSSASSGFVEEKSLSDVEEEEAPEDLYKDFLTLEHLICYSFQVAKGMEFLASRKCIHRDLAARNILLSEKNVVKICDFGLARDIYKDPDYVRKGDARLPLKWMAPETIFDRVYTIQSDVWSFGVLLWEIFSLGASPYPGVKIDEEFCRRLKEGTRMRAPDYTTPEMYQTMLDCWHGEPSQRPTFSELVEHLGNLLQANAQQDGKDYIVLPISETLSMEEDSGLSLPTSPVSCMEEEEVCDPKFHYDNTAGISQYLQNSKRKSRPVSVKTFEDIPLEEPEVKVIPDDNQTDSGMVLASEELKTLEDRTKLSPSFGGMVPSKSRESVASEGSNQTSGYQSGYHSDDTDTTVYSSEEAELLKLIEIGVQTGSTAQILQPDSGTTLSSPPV

Structure (SMILES)	IC50 [1] [nM]	IC50 (VEGFR2, unphosphorylated) [µM]	IC50 [2] [nM]
Cc1ncc(NC(=O)CN2CC(C)(C)C2)cc1NC(=O)c1cnn2cc(-c3cnn(C(F)F)c3)sc12 [Example 428, 2-(1-(difluoromethyl)-1H-pyrazol-4-yl)-N-(5-(2-(3,3-dimethylazetidin-1-yl)acetamido)-2-methylpyridin-3-yl)pyrazolo[5,1-b]thiazole-7-carboxamide]	17.3	> 7.5	0.8
Cc1ncc(NC(=O)CN2CCC[C@@H]2C)cc1NC(=O)c1cnn2cc(-c3cnn4c3CCC4)sc12 [Example 416, (S)-2-(5,6-dihydro-4H-pyrrolo[1,2-b]pyrazol-3-yl)-N-(2-methyl-5-(2-(2-methylpyrrolidin-1-yl)acetamido)pyridin-3-yl)pyrazolo[5,1-b]thiazole-7-carboxamide]	1.6	> 7.5	0.2
Cc1ncc(NC(=O)CN2CCC[C@@H]2C)cc1NC(=O)c1cnn2cc(-c3cnn4c3OCCC4)sc12 [Example 413, (S)-2-(6,7-dihydro-5H-pyrazolo[5,1-b][1,3]oxazin-3-yl)-N-(2-methyl-5-(2-(2-methylpyrrolidin-1-yl)acetamido)pyridin-3-yl)pyrazolo[5,1-b]thiazole-7-carboxamide]	2.9	> 7.5	0.3
Cc1ncc(C(=O)NCCN2CCCC23CCC3)cc1NC(=O)c1cnn2cc(-c3cnn4c3OCCC4)sc12 [Example 478, N-(5-((2-(5-azaspiro[3.4]octan-5-yl)ethyl)carbamoyl)-2-methylpyridin-3-yl)-2-(6,7-dihydro-5H-pyrazolo[5,1-b][1,3]oxazin-3-yl)pyrazolo[5,1-b]thiazole-7-carboxamide]	3	2.56	0.3
Cc1ncc(NC(=O)CNC2CCC2)cc1NC(=O)c1cnn2cc(-c3cnn4c3CCC4)sc12 [Example 471, N-(5-(2-(cyclobutylamino)acetamido)-2-methylpyridin-3-yl)-2-(5,6-dihydro-4H-pyrrolo[1,2-b]pyrazol-3-yl)pyrazolo[5,1-b]thiazole-7-carboxamide]	1	> 7.5	0.1
Cc1ncc(NC(=O)NCCN2CCCC2(C)C)cc1NC(=O)c1cnn2cc(-c3cnn(C)c3)sc12 [Example 38, N-(5-(3-(2-(2,2-dimethylpyrrolidin-1-yl)ethyl)ureido)-2-methyl-pyridin-3-yl)-2-(1-methyl-1H-pyrazol-4-yl)pyrazolo[5,1-b]thiazole-7-carboxamide]	33.5	> 7.5	1.8
Cc1ncc(NC(=O)CN2CC(C)(C)C2)cc1NC(=O)c1cnn2cc(-c3cnc4n3CCOC4)sc12 [Example 415, 2-(5,6-dihydro-8H-imidazo[2,1-c][1,4]oxazin-3-yl)-N-(5-(2-(3,3-dimethylazetidin-1-yl)acetamido)-2-methylpyridin-3-yl)pyrazolo[5,1-b]thiazole-7-carboxamide]	6.6	> 7.5	0.5
Cc1ncc(NC(=O)CC2CN(C)C2)cc1NC(=O)c1cnn2cc(-c3cnn4c3CCC4)sc12 [Example 427, 2-(5,6-dihydro-4H-pyrrolo[1,2-b]pyrazol-3-yl)-N-(2-methyl-5-(2-(1-methylazetidin-3-yl)acetamido)pyridin-3-yl)pyrazolo[5,1-b]thiazole-7-carboxamide]	150	> 7.5	2.1
Cc1ncc(NC(=O)CNC2CCCC2)cc1NC(=O)c1cnn2cc(-c3cnn4c3CCC4)sc12 [Example 422, N-(5-(2-(cyclopentylamino)acetamido)-2-methylpyridin-3-yl)-2-(5,6-dihydro-4H-pyrrolo[1,2-b]pyrazol-3-yl)pyrazolo[5,1-b]thiazole-7-carboxamide]	1.1	> 7.5	0.2
Cc1ncc(NC(=O)CN2CC(C)(C)C2)cc1NC(=O)c1cnn2cc(-c3cncnc3)sc12 [Example 429, N-(5-(2-(3,3-dimethylazetidin-1-yl)acetamido)-2-methylpyridin-3-yl)-2-(pyrimidin-5-yl)pyrazolo[5,1-b]thiazole-7-carboxamide]	185	> 7.5	6.3
Cc1ncc(NC(=O)CN2CCC2)cc1NC(=O)c1cnn2cc(-c3cnn4c3OCCC4)sc12 [Example 412, N-(5-(2-(azetidin-1-yl)acetamido)-2-methylpyridin-3-yl)-2-(6,7-dihydro-5H-pyrazolo[5,1-b][1,3]oxazin-3-yl)pyrazolo[5,1-b]thiazole-7-carboxamide]	34.6	> 7.5	1.4
Cc1ncc(NC(=O)CN2CCC[C@@H]2C)cc1NC(=O)c1cnn2cc(-c3cnn4c3COCC4)sc12 [Example 473, (S)-2-(6,7-dihydro-4H-pyrazolo[5,1-c][1,4]oxazin-3-yl)-N-(2-methyl-5-(2-(2-methylpyrrolidin-1-yl)acetamido)pyridin-3-yl)pyrazolo[5,1-b]thiazole-7-carboxamide]	4.8	> 7.5	0.4
Cc1ncc(NC(=O)CN2CC(C)(C)C2)cc1NC(=O)c1cnn2cc(-c3cccnc3OC(F)(F)F)sc12 [Example 437, N-(5-(2-(3,3-dimethylazetidin-1-yl)acetamido)-2-methylpyridin-3-yl)-2-(2-(trifluoromethoxy)pyridin-3-yl)pyrazolo[5,1-b]thiazole-7-carboxamide]	4.6	> 7.5	0.4
CCOc1ncccc1-c1cn2ncc(C(=O)Nc3cc(NC(=O)CN4CC(C)(C)C4)cnc3C)c2s1 [Example 436, N-(5-(2-(3,3-Dimethylazetidin-1-yl)acetamido)-2-methylpyridin-3-yl)-2-(2-ethoxypyridin-3-yl)pyrazolo[5,1-b]thiazole-7-carboxamide]	0.9	4.3	0.1
COC1(C)CN(CC(=O)Nc2cnc(C)c(NC(=O)c3cnn4cc(-c5cn(C)nc5C)sc34)c2)C1 [Example 442, 2-(1,3-Dimethyl-1H-pyrazol-4-yl)-N-(5-(2-(3-methoxy-3-methylazetidin-1-yl)acetamido)-2-methylpyridin-3-yl)pyrazolo[5,1-b]thiazole-7-carboxamide]	3.1	> 7.5	0.3
Cc1ncc(NC(=O)CN2CCC3(CC3)C2)cc1NC(=O)c1cnn2cc(-c3cnn4c3COCC4)sc12 [Example 474, N-(5-(2-(5-azaspiro[2.4]heptan-5-yl)acetamido)-2-methylpyridin-3-yl)-2-(6,7-dihydro-4H-pyrazolo[5,1-c][1,4]oxazin-3-yl)pyrazolo[5,1-b]thiazole-7-carboxamide]	1.7	> 7.5	0.2
COCCn1cc(-c2cn3ncc(C(=O)Nc4cc(NC(=O)C[C@@H]5CCN(C(C)C)C5)cnc4C)c3s2)cn1 [Example 466, (S)—N-(5-(2-(1-isopropylpyrrolidin-3-yl)acetamido)-2-methylpyridin-3-yl)-2-(1-(2-methoxyethyl)-1H-pyrazol-4-yl)pyrazolo[5,1-b]thiazole-7-carboxamide]	261	> 7.5	9
Cc1ncc(NC(=O)CNCC2CC2)cc1NC(=O)c1cnn2cc(-c3cnn4c3OCCC4)sc12 [Example 453, N-(5-(2-((cyclopropylmethyl)amino)acetamido)-2-methylpyridin-3-yl)-2-(6,7-dihydro-5H-pyrazolo[5,1-b][1,3]oxazin-3-yl)pyrazolo[5,1-b]thiazole-7-carboxamide]	5.8	> 7.5	0.6
Cc1ncc(NC(=O)CN2CCC(C)C2)cc1NC(=O)c1cnn2cc(-c3cn(C)nc3C)sc12 (stereo not drawn) [Example 446, 2-(1,3-Dimethyl-1H-pyrazol-4-yl)-N-(2-methyl-5-(2-(3-methylpyrrolidin-1-yl)acetamido)pyridin-3-yl)pyrazolo[5,1-b]thiazole-7-carboxamide]	3.5	> 7.5	0.3
Cc1ncc(NC(=O)CN2CC(C)(C)C2)cc1NC(=O)c1cnn2cc(-c3cnn4c3OCCC4)sc12 [Example 39, 2-(6,7-dihydro-5H-pyrazolo[5,1-b][1,3]oxazin-3-yl)-N-(5-(2-(3,3-dimethylazetidin-1-yl)acetamido)-2-methylpyridin-3-yl)pyrazolo[5,1-b]thiazole-7-carboxamide]	1.9	2.04	0.3
Cc1ncc(NC(=O)CN2CC(C)(C)C2)cc1NC(=O)c1cnn2cc(-c3nn(C)nc3C)sc12 [Example 445, 2-(2,5-Dimethyl-2H-1,2,3-triazol-4-yl)-N-(5-(2-(3,3-dimethylazetidin-1-yl)acetamido)-2-methylpyridin-3-yl)pyrazolo[5,1-b]thiazole-7-carboxamide]	2.1	> 7.5	0.3
Cc1ncc(NC(=O)CN2CCCC2(C)C)cc1NC(=O)c1cnn2cc(-c3cn(C)nc3C)sc12 [Example 444, 2-(1,3-Dimethyl-1H-pyrazol-4-yl)-N-(5-(2-(2,2-dimethylpyrrolidin-1-yl)acetamido)-2-methylpyridin-3-yl)pyrazolo[5,1-b]thiazole-7-carboxamide]	1.8	> 7.5	0.2
COCCn1cc(-c2cn3ncc(C(=O)Nc4cc(NC(=O)CCC5CCCN5C)cnc4C)c3s2)cn1 (stereo not drawn) [Example 462, 2-(1-(2-methoxyethyl)-1H-pyrazol-4-yl)-N-(2-methyl-5-(3-(1-methylpyrrolidin-2-yl)propanamido)pyridin-3-yl)pyrazolo[5,1-b]thiazole-7-carboxamide]	15.3	> 7.5	0.7
